Earlier results on three molecules are cited in US20060135482A1, “Use of fosinopril to reduce cardiovascular events in disalysis patients” (priority 2002, published 2006).

Like-named read-outs stand apart in the source and are kept apart here.

The conditions of series [1]: patients Clcr<30 ml/min.
The conditions of series [2]: 10 days; renal insufficiency patients.
For series [3] the following is noted: varying degrees of renal insufficiency incl. severe (Clcr<10 ml/min); relative to normal renal function.
For series [4] the following is noted: blood dialysis or peritoneal dialysis patients with terminal renal insufficiency.
The conditions of series [5]: normal liver and kidney function; hepatic clearance increases if renal function impaired.

Take `NCCCC[C@H](N[C@@H](CCc1ccccc1)C(=O)O)C(=O)N1CCC[C@H]1C(=O)O` [lisinopril]: in series [1] (lisinopril 5 mg/day for 10 days, p<0.001 versus fosinopril), the “AUCd10/AUCd1 (accumulation ratio, area under the curve day 10/day 1)” value is on record as 2.57.

As to `CCC(=O)O[C@@H](O[P@](=O)(CCCCc1ccccc1)CC(=O)N1C[C@H](C2CCCCC2)C[C@H]1C(=O)O)C(C)C` [fosinopril, (2S,4S)-4-cyclohexyl-1-[2-[(R)-[[(S)-2-methyl-1-(propanoyl-oxy)propyl]oxy](4-phenylbutyl)phosphinoyl]acetyl]pyrrolidine-2-carboxylic acid], the “AUCd10/AUCd1 (accumulation ratio, area under the curve day 10/day 1)” value is given as 1.41 in series [1] (fosinopril 10 mg/day for 10 days, comparison versus enalapril, p=0.02) and 1.3 in series [1] (fosinopril 10 mg/day for 10 days, comparison versus lisinopril, p<0.001). Moreover, the “Accumulation on repeated administration” value in series [2] is reported as “accumulates less than enalapril or lisinopril”. The “Total clearance of the medicament” value in series [3] is recorded as “about half of that observed in an individual with normal renal function”. In addition, in series [4], the Pharmacokinetic parameters result is reported as “remain comparable with those observed in patients with mild, moderate or severe renal insufficiency”. The Elimination route entry in series [5] is “eliminated in equal parts via the liver and the kidneys”.

Regarding `CCOC(=O)[C@H](CCc1ccccc1)N[C@@H](C)C(=O)N1CCC[C@H]1C(=O)O` [enalapril], in series [1] (enalapril 2.5 mg/day for 10 days, p=0.02 versus fosinopril), the “AUCd10/AUCd1 (accumulation ratio, area under the curve day 10/day 1)” value is on record as 1.96.
